The supplement of paper PMC10331698
± gives the standard deviation of the averaged measurements.

Key:
Test in all cases: level (log10 ratio to DMSO vehicle control); higher = higher biomarker level / cell amount than vehicle control
[1] = compound: O=S(=O)(O)C(F)(F)C(F)(F)OC(F)(F)C(F)(F)F [Perfluoro(2-ethoxyethane)sulfonic acid] (in DMSO)
Experimental: (§1)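 BioMAP Diversity Plus panel of 12 human primary cell co-culture systems (3C, 4H, LPS, SAg, BT, BF4T, BE3C, CASM3C, HDF3CGF, KF3CT, MyoF, Mphg). Compounds were added 1 h before stimulation and left for 24 h (MyoF 48 h; BT 72 h for soluble read-outs or 6 d for IgG). Biomarkers were read by ELISA, cytotoxicity by SRB, PBMC viability and proliferation by Alamar Blue. Each well value was divided by the mean of 8 DMSO control wells on the same plate and log10 transformed; duplicate blinded samples were tested at 4 concentrations.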

Perfluoroundecanoic acid = compound: O=C(O)C(F)(F)C(F)(F)C(F)(F)C(F)(F)C(F)(F)C(F)(F)C(F)(F)C(F)(F)C(F)(F)C(F)(F)F [Perfluoroundecanoic acid] (in DMSO); conditions: 6700 nM
Experimental: as §1

[2] = compound: O=C(O)C(F)(F)OC(F)(F)C(F)(F)OC(F)(F)C(F)(F)OC(F)(F)C(F)(F)C(F)(F)C(F)(F)F [Perfluoro-3,6,9-trioxatridecanoic acid] (in DMSO); conditions: 6700 nM
Experimental: as §1

[3] = compound: O=C(O)C(F)(F)C(F)(F)C(F)(F)OC(F)(F)F [Perfluoro(4-methoxybutanoic) acid] (in DMSO)
Experimental: as §1

[4] = compound: OCCC(F)(F)C(F)(F)C(F)(F)C(F)(F)F [4:2 Fluorotelomer alcohol] (in DMSO)
Experimental: as §1

[5] = compound: C=C(C)C(=O)OCCC(F)(F)C(F)(F)C(F)(F)C(F)(F)C(F)(F)C(F)(F)C(F)(F)C(F)(F)F [8:2 Fluorotelomer methacrylate] (in DMSO)
Experimental: as §1

[6] = compound: OCC(F)(F)C(F)(F)C(F)(F)C(F)F [1H,1H,5H-Perfluoropentanol] (in DMSO)
Experimental: as §1

[7] = compound: O=C(O)C=C(C(F)(F)F)C(F)(F)F [3,3-Bis(trifluoromethyl)-2-propenoic acid] (in DMSO)
Experimental: as §1

BF4T:tPA
level (log10) ([1]; 6700 nM): -0.0095 ± 0.022 | level (log10) ([1]; 20000 nM): -0.004 ± 0.021 | level (log10) ([1]; 60000 nM): 0.017 ± 0.05 | level (log10) (Perfluoroundecanoic acid): -0.043 ± 0.037 | level (log10) [2]: -0.185 ± 0.057 | level (log10) ([3]; 6700 nM): -0.003 | level (log10) ([3]; 20000 nM): 0.0005 ± 0.0064 | level (log10) ([3]; 60000 nM): 0.0105 ± 0.022 | level (log10) ([4]; 6700 nM): -0.0085 ± 0.056 | level (log10) ([4]; 20000 nM): -0.0155 ± 0.071 | level (log10) ([4]; 60000 nM): 0.022 | level (log10) ([5]; 6700 nM): -0.027 ± 0.0028 | level (log10) ([5]; 20000 nM): -0.017 ± 0.0057 | level (log10) ([6]; 6700 nM): -0.009 ± 0.028 | level (log10) ([6]; 20000 nM): 0.0335 ± 0.022 | level (log10) ([6]; 60000 nM): 0.04 ± 0.058 | level (log10) ([7]; 6700 nM): -0.0965 ± 0.035 | level (log10) ([7]; 20000 nM): -0.12 ± 0.026 | level (log10) ([7]; 60000 nM): -0.11 ± 0.029

BF4T:uPA
level (log10) ([1]; 6700 nM): -0.003 ± 0.011 | level (log10) ([1]; 20000 nM): -0.0025 ± 0.021 | level (log10) ([1]; 60000 nM): 0.0235 ± 0.00071 | level (log10) (Perfluoroundecanoic acid): 0.0275 ± 0.0064 | level (log10) [2]: 0.0245 ± 0.018 | level (log10) ([3]; 6700 nM): -0.009 ± 0.0085 | level (log10) ([3]; 20000 nM): -0.012 | level (log10) ([3]; 60000 nM): 0.0045 ± 0.005 | level (log10) ([4]; 6700 nM): -0.008 ± 0.035 | level (log10) ([4]; 20000 nM): 0.012 ± 0.013 | level (log10) ([4]; 60000 nM): 0.018 ± 0.025 | level (log10) ([5]; 6700 nM): -0.013 ± 0.013 | level (log10) ([5]; 20000 nM): 0.009 ± 0.0014 | level (log10) ([6]; 6700 nM): -0.0215 ± 0.032 | level (log10) ([6]; 20000 nM): 0.023 ± 0.016 | level (log10) ([6]; 60000 nM): 0.013 ± 0.02 | level (log10) ([7]; 6700 nM): -0.0175 ± 0.0078 | level (log10) ([7]; 20000 nM): -0.0195 ± 0.012 | level (log10) ([7]; 60000 nM): -0.0135 ± 0.013

BT:B cell Proliferation
level (log10) ([1]; 6700 nM): 0.011 ± 0.011 | level (log10) ([1]; 20000 nM): 0.0575 ± 0.036 | level (log10) ([1]; 60000 nM): 0.034 ± 0.0014 | level (log10) (Perfluoroundecanoic acid): -0.0035 ± 0.025 | level (log10) [2]: 0.028 ± 0.02 | level (log10) ([3]; 6700 nM): -0.009 ± 0.034 | level (log10) ([3]; 20000 nM): -0.0165 ± 0.013 | level (log10) ([3]; 60000 nM): -0.006 ± 0.0099 | level (log10) ([4]; 6700 nM): 0.0125 ± 0.0035 | level (log10) ([4]; 20000 nM): 0.0155 ± 0.033 | level (log10) ([4]; 60000 nM): 0.019 ± 0.0042 | level (log10) ([5]; 6700 nM): -0.025 ± 0.018 | level (log10) ([5]; 20000 nM): 0.037 ± 0.033 | level (log10) ([6]; 6700 nM): -0.016 ± 0.0042 | level (log10) ([6]; 20000 nM): 0.0015 ± 0.046 | level (log10) ([6]; 60000 nM): 0.0065 ± 0.057 | level (log10) ([7]; 6700 nM): -0.0145 ± 0.0021 | level (log10) ([7]; 20000 nM): -0.0385 ± 0.0035 | level (log10) ([7]; 60000 nM): -0.121 ± 0.0064

BT:PBMC Cytotoxicity
level (log10) ([1]; 6700 nM): 0.0245 ± 0.033 | level (log10) ([1]; 20000 nM): 0.0005 ± 0.0035 | level (log10) ([1]; 60000 nM): 0.056 ± 0.013 | level (log10) (Perfluoroundecanoic acid): 0.0085 ± 0.029 | level (log10) [2]: 0.0125 ± 0.0078 | level (log10) ([3]; 6700 nM): 0.0095 ± 0.0078 | level (log10) ([3]; 20000 nM): -0.0025 ± 0.0064 | level (log10) ([3]; 60000 nM): 0.0225 ± 0.021 | level (log10) ([4]; 6700 nM): -0.044 ± 0.0042 | level (log10) ([4]; 20000 nM): -0.0365 ± 0.013 | level (log10) ([4]; 60000 nM): -0.045 ± 0.031 | level (log10) ([5]; 6700 nM): -0.0005 ± 0.0021 | level (log10) ([5]; 20000 nM): 0.016 ± 0.058 | level (log10) ([6]; 6700 nM): -0.0275 ± 0.013 | level (log10) ([6]; 20000 nM): -0.038 ± 0.045 | level (log10) ([6]; 60000 nM): -0.019 ± 0.042 | level (log10) ([7]; 6700 nM): 0.0065 ± 0.049 | level (log10) ([7]; 20000 nM): 0.001 ± 0.02 | level (log10) ([7]; 60000 nM): -0.009 ± 0.025

BT:Secreted IgG
level (log10) ([1]; 6700 nM): 0.0355 ± 0.0035 | level (log10) ([1]; 20000 nM): -0.0135 ± 0.084 | level (log10) ([1]; 60000 nM): -0.0095 ± 0.086 | level (log10) (Perfluoroundecanoic acid): 0.003 ± 0.011 | level (log10) [2]: -0.0225 ± 0.0092 | level (log10) ([3]; 6700 nM): -0.0045 ± 0.03 | level (log10) ([3]; 20000 nM): 0.026 ± 0.047 | level (log10) ([3]; 60000 nM): -0.0125 ± 0.0064 | level (log10) ([4]; 6700 nM): 0.023 ± 0.028 | level (log10) ([4]; 20000 nM): 0.0205 ± 0.018 | level (log10) ([4]; 60000 nM): 0.013 ± 0.0057 | level (log10) ([5]; 6700 nM): 0.0175 ± 0.012 | level (log10) ([5]; 20000 nM): 0.028 ± 0.0085 | level (log10) ([6]; 6700 nM): 0.044 ± 0.02 | level (log10) ([6]; 20000 nM): 0.0295 ± 0.039 | level (log10) ([6]; 60000 nM): 0.0475 ± 0.028 | level (log10) ([7]; 6700 nM): 0.0155 ± 0.005 | level (log10) ([7]; 20000 nM): -0.0375 ± 0.052 | level (log10) ([7]; 60000 nM): -0.597 ± 0.16

BT:sIL-2
level (log10) ([1]; 6700 nM): -0.023 ± 0.0085 | level (log10) ([1]; 20000 nM): -0.0935 ± 0.04 | level (log10) ([1]; 60000 nM): -0.0595 ± 0.066 | level (log10) (Perfluoroundecanoic acid): 0.03 ± 0.033 | level (log10) [2]: 0.0075 ± 0.016 | level (log10) ([3]; 6700 nM): -0.013 ± 0.0028 | level (log10) ([3]; 20000 nM): -0.006 ± 0.052 | level (log10) ([3]; 60000 nM): 0.029 ± 0.051 | level (log10) ([4]; 6700 nM): 0.0085 ± 0.064 | level (log10) ([4]; 20000 nM): 0.0625 ± 0.11 | level (log10) ([4]; 60000 nM): 0.0265 ± 0.071 | level (log10) ([5]; 6700 nM): -0.006 ± 0.024 | level (log10) ([5]; 20000 nM): -0.04 ± 0.064 | level (log10) ([6]; 6700 nM): -0.0095 ± 0.066 | level (log10) ([6]; 20000 nM): -0.0245 ± 0.0078 | level (log10) ([6]; 60000 nM): 0.0145 ± 0.059 | level (log10) ([7]; 6700 nM): -0.297 ± 0.042 | level (log10) ([7]; 20000 nM): -0.529 ± 0.02 | level (log10) ([7]; 60000 nM): -0.648 ± 0.072

BT:sIL-6
level (log10) ([1]; 6700 nM): 0.006 ± 0.03 | level (log10) ([1]; 20000 nM): -0.029 ± 0.0085 | level (log10) ([1]; 60000 nM): -0.027 ± 0.076 | level (log10) (Perfluoroundecanoic acid): 0.0325 ± 0.019 | level (log10) [2]: 0.0165 ± 0.032 | level (log10) ([3]; 6700 nM): 0.042 ± 0.089 | level (log10) ([3]; 20000 nM): 0.0225 ± 0.071 | level (log10) ([3]; 60000 nM): -0.061 ± 0.038 | level (log10) ([4]; 6700 nM): 0.035 ± 0.02 | level (log10) ([4]; 20000 nM): 0.0455 ± 0.036 | level (log10) ([4]; 60000 nM): 0.009 ± 0.069 | level (log10) ([5]; 6700 nM): 0.0115 ± 0.042 | level (log10) ([5]; 20000 nM): -0.0085 ± 0.11 | level (log10) ([6]; 6700 nM): 0.0265 ± 0.005 | level (log10) ([6]; 20000 nM): 0.0175 ± 0.015 | level (log10) ([6]; 60000 nM): 0.003 ± 0.014 | level (log10) ([7]; 6700 nM): 0.035 ± 0.037 | level (log10) ([7]; 20000 nM): -0.0575 ± 0.026 | level (log10) ([7]; 60000 nM): -0.182 ± 0.018
